Several values for one entry are separate records, joined by “and”; a condition that tells them apart may be missing. Equal entries are not always repeated.
What was measured:
[1] = target: T1, NMDAR2A (Homo sapiens, UniProt Q12879); test: NMDAR agonist assay, [3H]MK-801 binding, NMDAR2A expressing HEK cell membranes; format: biochemical; settings: 50 μM glutamate; for EC50: read-out: NMDAR2A B: log EC50 (converted); for Emax: 0.25 h, read-out: NMDAR2A A: % maximal [3H]MK-801 binding relative to 1 mM glycine; for Emax / NMDAR2A A: % maximal [3H]MK-801 binding relative to 1 mM glycine: relative to 1 mM glycine
T1 construct: expressed in transfected cells; host or cells: HEK cells (membrane extract)
T1 sequence (Q12879 23-1464, species assumed, other chains not shown): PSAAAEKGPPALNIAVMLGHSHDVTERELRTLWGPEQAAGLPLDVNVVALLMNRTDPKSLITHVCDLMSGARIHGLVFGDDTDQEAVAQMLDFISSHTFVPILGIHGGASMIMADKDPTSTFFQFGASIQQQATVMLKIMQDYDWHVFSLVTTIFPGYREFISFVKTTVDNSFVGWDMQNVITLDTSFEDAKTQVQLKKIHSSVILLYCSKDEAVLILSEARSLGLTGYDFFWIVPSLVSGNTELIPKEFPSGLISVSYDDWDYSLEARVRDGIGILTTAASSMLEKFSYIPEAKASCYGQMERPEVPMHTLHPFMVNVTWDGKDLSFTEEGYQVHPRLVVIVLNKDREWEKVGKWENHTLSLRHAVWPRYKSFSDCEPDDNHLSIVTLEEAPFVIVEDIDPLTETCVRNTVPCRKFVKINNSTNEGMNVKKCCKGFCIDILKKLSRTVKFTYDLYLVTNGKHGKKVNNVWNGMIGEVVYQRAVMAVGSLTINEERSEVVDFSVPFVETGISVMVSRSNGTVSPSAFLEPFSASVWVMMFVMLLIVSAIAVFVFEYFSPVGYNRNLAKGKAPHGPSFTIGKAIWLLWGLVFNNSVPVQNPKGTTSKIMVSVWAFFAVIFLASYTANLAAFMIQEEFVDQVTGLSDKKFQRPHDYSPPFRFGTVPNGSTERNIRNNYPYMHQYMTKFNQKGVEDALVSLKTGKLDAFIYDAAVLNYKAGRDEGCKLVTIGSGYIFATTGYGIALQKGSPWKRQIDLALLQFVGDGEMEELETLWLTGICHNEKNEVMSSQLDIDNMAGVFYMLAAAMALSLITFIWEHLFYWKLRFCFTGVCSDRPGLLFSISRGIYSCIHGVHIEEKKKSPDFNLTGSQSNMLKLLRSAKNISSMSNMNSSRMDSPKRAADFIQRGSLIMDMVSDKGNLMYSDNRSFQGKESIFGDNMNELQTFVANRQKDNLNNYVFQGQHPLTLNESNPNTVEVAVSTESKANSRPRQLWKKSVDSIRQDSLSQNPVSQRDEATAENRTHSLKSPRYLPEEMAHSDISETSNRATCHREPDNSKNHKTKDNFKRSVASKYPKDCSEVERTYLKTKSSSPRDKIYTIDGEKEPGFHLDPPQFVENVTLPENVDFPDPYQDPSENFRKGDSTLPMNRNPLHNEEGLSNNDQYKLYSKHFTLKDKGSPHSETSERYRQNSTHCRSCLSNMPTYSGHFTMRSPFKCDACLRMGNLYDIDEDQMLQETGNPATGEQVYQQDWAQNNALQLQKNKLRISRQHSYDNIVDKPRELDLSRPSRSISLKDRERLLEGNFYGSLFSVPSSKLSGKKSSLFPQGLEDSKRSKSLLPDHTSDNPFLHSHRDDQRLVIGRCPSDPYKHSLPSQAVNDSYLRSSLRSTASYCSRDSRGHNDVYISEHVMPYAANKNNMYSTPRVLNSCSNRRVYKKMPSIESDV
Description: (§1) Assays were conducted as described by Moskal et al., “GLYX-13: a monoclonal antibody-derived peptide that acts as an N-methyl-D-aspartate receptor modulator,” Neuropharmacology, 49, 1077-87, 2005. These studies were designed to determine if the test compounds act to facilitate NMDAR activation in NMDAR2A, NMDAR2B, NMDAR2C or NMDAR2D expressing HEK cell membranes as measured by increases in [^3H]MK-801 binding.
(§2) In the assay, 300 μg of NMDAR expressing HEK cell membrane extract protein was preincubated for 15 minutes at […] in the presence of saturating concentrations of glutamate (50 μM) and varying concentrations of test compound (1×10^−15M-1×10^−7M), or 1 mM glycine. Following the addition of 0.3 μCi of [3H]MK-801 (22.5 Ci/mmol), reactions were again incubated for 15 minutes at 25° C. (nonequilibrium conditions). Bound and free [3H]MK-801 were separated via rapid filtration using a Brandel apparatus.
(§3) In analyzing the data, the DPM (disintegrations per minute) of [3H]MK-801 remaining on the filter were measured for each concentration of test compound or for 1 mM glycine. The DPM values for each concentration of a ligand (N=2) were averaged. The baseline value was determined from the best fit curve of the DPM values modeled using the GraphPad program and the log(agonist) vs. response (three parameters) algorithm was then subtracted from all points in the dataset. The % maximal [^3H]MK-801 binding was then calculated relative to that of 1 mM glycine: all baseline subtracted DPM values were divided by the average value for 1 mM glycine. The EC50 and % maximal activity were then obtained from the best fit curve of the % maximal [3H]MK-801 binding data modelled using the GraphPad program and the log(agonist) vs. response (three parameters) algorithm.
(§4) The tables below summarize the results for the wild type […] NMDAR2A, NMDAR2B, NMDAR2C, and NMDAR2D, and whether the compound is not an agonist (−), is an agonist (+), or is a strong agonist (++), where column A is based on the % maximal [3H]MK-801 binding relative to 1 mM glycine (−=0; <100%=+; and >100%=++); and column B is based on log EC50 values (0=−; ≥1×10^−9 M (e.g., −8)=+; and <1×10^−9 M (e.g., −10)=++).

[2] = target: T2, NMDAR2B (Homo sapiens, UniProt Q13224); test: NMDAR agonist assay, [3H]MK-801 binding, NMDAR2B expressing HEK cell membranes; format: biochemical; settings: 50 μM glutamate; for EC50: read-out: NMDAR2B B: log EC50 (converted); for Emax / NMDAR2B A: % maximal [3H]MK-801 binding relative to 1 mM glycine: relative to 1 mM glycine; for Emax: read-out: NMDAR2B A: % maximal [3H]MK-801 binding relative to 1 mM glycine
T2 construct: expressed in transfected cells; host or cells: HEK cells (membrane extract)
T2 sequence (Q13224 27-1484, species assumed, other chains not shown): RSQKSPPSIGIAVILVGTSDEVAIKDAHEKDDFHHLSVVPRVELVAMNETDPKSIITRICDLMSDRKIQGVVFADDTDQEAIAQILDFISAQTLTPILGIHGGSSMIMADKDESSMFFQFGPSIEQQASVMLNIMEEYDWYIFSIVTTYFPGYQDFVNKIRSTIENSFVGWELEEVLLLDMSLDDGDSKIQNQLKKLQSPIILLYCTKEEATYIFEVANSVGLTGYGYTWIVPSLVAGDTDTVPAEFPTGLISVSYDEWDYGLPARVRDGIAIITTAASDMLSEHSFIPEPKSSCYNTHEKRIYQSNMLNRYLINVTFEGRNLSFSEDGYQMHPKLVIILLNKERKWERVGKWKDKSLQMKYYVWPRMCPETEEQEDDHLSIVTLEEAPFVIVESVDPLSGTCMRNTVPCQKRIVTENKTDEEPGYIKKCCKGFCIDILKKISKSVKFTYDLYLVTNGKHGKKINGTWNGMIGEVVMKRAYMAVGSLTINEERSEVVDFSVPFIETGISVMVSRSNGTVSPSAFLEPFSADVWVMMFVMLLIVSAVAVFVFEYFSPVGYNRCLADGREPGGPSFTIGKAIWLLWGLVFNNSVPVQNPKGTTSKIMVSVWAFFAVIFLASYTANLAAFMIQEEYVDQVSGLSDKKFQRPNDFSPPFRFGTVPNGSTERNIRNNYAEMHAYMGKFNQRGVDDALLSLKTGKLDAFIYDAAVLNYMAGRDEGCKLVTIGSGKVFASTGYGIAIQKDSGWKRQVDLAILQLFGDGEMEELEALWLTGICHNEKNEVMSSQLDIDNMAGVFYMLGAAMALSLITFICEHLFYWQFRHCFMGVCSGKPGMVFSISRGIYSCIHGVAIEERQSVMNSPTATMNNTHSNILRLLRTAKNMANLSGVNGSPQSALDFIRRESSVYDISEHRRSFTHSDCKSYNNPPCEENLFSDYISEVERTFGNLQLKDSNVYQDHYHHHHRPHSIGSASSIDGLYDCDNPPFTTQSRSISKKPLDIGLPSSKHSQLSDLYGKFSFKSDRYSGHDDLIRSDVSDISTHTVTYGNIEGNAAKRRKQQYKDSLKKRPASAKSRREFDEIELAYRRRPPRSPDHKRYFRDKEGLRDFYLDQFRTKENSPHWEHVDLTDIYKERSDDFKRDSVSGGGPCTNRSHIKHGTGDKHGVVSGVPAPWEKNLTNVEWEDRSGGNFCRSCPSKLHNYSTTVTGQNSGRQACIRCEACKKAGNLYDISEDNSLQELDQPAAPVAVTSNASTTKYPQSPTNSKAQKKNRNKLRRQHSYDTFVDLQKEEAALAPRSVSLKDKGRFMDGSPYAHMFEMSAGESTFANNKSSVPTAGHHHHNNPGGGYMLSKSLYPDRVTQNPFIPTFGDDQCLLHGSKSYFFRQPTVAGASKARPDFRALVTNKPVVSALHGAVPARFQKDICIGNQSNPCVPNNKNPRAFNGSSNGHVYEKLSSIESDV
Description: as §1, §2, §3, §4

[3] = Microsomal stability (Human); format: in vitro ADME; settings: after 60 minutes
Description: (§5) Microsomal stability of disclosed compounds was investigated. The following table indicates the percent of compound remaining after 60 minutes.

[4] = Microsomal stability (Rat); format: in vitro ADME; settings: after 60 minutes
Description: as §5

[5] = Plasma stability (Human); format: in vitro ADME; settings: after 60 minutes
Description: (§6) Plasma stability of disclosed compounds was investigated. The following table indicates the percent of compound remaining after 60 minutes.

[6] = Plasma stability (Rat); format: in vitro ADME; settings: after 60 minutes
Description: as §6

[7] = IV pharmacokinetics in Sprague Dawley rats; format: in vivo; settings: Sprague-Dawley, rat, in vivo, iv, 2 mg/kg, normal saline
Description: Sprague Dawley rats were dosed intravenously using a normal saline formulation containing 2 mg/kg of the compounds identified in the below table. The table below summarizes the results of the IV pharmacokinetics.

[8] = Oral pharmacokinetics in Sprague Dawley rats (plasma, brain, CSF); format: in vivo; settings: rat, 10 mg/kg
Description: In another experiment, Sprague Dawley rats were dosed per os (oral gavage) using a normal saline formulation containing 10 mg/kg of the compounds identified in the table below. Plasma, brain, and CSF samples were analyzed at various time points over a 24 hour period. The table below summarizes the results of the oral pharmacokinetics, where the first three values (Tmax, Cmax and AUClast) are plasma values.

| Structure (SMILES) | EC50 [1] [nM] | Emax [1] [%] | EC50 [2] [nM] | Emax [2] [%] | Microsomal (Human): percent of compound remaining [3] [%] | Microsomal (Rat): percent of compound remaining [4] [%] | Plasma (Human): percent of compound remaining [5] | Plasma (Rat): percent of compound remaining [6] [%] | NMDAR2A A: % maximal [3H]MK-801 binding relative to 1 mM glycine [1] | NMDAR2B A: % maximal [3H]MK-801 binding relative to 1 mM glycine [2] | further results |
| --- | --- | --- | --- | --- | --- | --- | --- | --- | --- | --- | --- |
| O=C1NCC=CCC12CCCN2Cc1ccc(F)cc1 (single isomer, unassigned) [GJ-1, 1-(4-fluorobenzyl)-1,7-diazaspiro[4.6]undec-9-en-6-one] | < 1 | < 100 | < 1 | < 100 | 83 | 11 | 105% | 100 | – | – | – |
| NC(=O)CN1CCCC12CC=CCNC2=O (single isomer, unassigned) [GQ-1, 2-(6-oxo-1,7-diazaspiro[4.6]undec-9-en-1-yl)acetamide] | < 1 | < 100 | ≥ 1 | > 100 | 88 | 87 | 98% | 98 | – | – | – |
| O=C1NCC=CCC12CCCN2Cc1ccccc1 (single isomer, unassigned) [GP-1, 1-benzyl-1,7-diazaspiro[4.6]undec-9-en-6-one] | < 1 | < 100 | < 1 | > 100 | 80 | 2 | 98% | 96 | – | – | – |
| CC(C)C(=O)N1CCCC12CC=CCNC2=O (single isomer, unassigned) [GH-2, 1-isobutyryl-1,7-diazaspiro[4.6]undec-9-en-6-one] | < 1 | – | < 1 | – | 87 | 104 | – | – | + (<100%=+) | ++ (>100%=++) | AUC(0-t) [7]: 1990 ng·h/mL; clearance [7]: 16.7 mL/min/kg; half-life [7]: 25.8 min; Cmax ([7]; read-out: Cmax): 1500 ng/mL; Vd ([7]; read-out: Vss): 0.75 L/kg; Tmax ([8]; Sprague-Dawley, po, per os, plasma, read-out: Tmax): 25.2 min; AUC(0-t) ([8]; Sprague-Dawley, plasma, po, per os): 11300 ng·h/mL; bioavailability ([8]; Sprague-Dawley, plasma, po, per os 10 mg/kg): 100%; Cmax ([8]; Sprague-Dawley, plasma, po, per os, plasma, read-out: Cmax): 5300 ng/mL; CSF Cmax ([8]; per os, CSF): 2296.73 ng/mL; Brain Cmax ([8]; per os, brain): 1424.03 ng/mL |
| CC(C)C(=O)N1CCCC12CC=CCNC2=O (single isomer, unassigned) [GH-1, 1-isobutyryl-1,7-diazaspiro[4.6]undec-9-en-6-one] | < 1 | < 100 | < 1 | < 100 | 104 | 100 | 103% and 96% | 102 | – | – | – |
| O=C1NCC=CCC12CCCN2Cc1ccccc1 (single isomer, unassigned) [GP-2, 1-benzyl-1,7-diazaspiro[4.6]undec-9-en-6-one] | < 1 | – | < 1 | – | 89 | 7 | 96% | 85 | ++ (>100%=++) | + (<100%=+) | – |
| O=C1N(Cc2ccccc2)CC=CCC12CCCN2 (single isomer, unassigned) [GS-2, 7-benzyl-1,7-diazaspiro[4.6]undec-9-en-6-one] | ≥ 1 | – | < 1 | – | 90 | 0 | 98% | 99 | + (<100%=+) | + (<100%=+) | – |
| O=C1NCC=CCC12CCCN2Cc1ccc(F)cc1 (single isomer, unassigned) [GJ-2, 1-(4-fluorobenzyl)-1,7-diazaspiro[4.6]undec-9-en-6-one] | < 1 | – | < 1 | – | 95 | 3 | 95% | 99 | + (<100%=+) | + (<100%=+) | – |
| CC(C)CN1CCCC12CC=CCNC2=O (single isomer, unassigned) [GI-1, 1-isobutyl-1,7-diazaspiro[4.6]undec-9-en-6-one] | < 1 | < 100 | < 1 | < 100 | 96 | 69 | 96% | 102 | – | – | – |
| O=C1N(Cc2ccccc2)CC=CCC12CCCN2 (single isomer, unassigned) [GS-1, 7-benzyl-1,7-diazaspiro[4.6]undec-9-en-6-one] | < 1 | < 100 | < 1 | < 100 | 99 | 0 | 97% | 95 | – | – | – |
